# Molecular target: T1, PAK1 (Homo sapiens, UniProt Q13153)
# T1 construct: purchased Thermo Fisher Scientific (Life Technologies) SelectScreen
# Assay: SelectScreen Z'LYTE
# Type: biochemical
# Outline: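 NU5455 was profiled across the SelectScreen Broad panel of kinase activity and binding assays. Z'LYTE reactions such as CSF1R ran at apparent Km ATP, while the Adapta CAMK1 assay used ATP listed as 10. Values are given as percent.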
# T1 sequence (Q13153 whole entry): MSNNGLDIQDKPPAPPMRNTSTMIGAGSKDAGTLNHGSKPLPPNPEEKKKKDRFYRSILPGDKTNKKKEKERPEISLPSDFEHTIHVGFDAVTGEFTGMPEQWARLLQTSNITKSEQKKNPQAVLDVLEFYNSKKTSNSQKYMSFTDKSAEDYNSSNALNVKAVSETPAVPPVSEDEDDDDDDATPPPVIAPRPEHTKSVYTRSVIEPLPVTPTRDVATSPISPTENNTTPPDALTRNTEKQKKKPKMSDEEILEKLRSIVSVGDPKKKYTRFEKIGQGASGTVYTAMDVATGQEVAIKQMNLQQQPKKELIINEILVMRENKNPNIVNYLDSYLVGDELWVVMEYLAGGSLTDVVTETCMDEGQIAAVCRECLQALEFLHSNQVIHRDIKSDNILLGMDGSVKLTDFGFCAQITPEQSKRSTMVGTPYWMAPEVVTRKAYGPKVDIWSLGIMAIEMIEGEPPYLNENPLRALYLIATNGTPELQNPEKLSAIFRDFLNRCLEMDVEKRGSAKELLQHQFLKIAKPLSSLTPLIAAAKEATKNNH
compound,measurement,value
CN(C(=O)CN1CCOCC1)c1ccc2sc3c(-c4cccc5c(=O)cc(N6CC7CCC(C6)O7)oc45)cccc3c2c1 [NU5455],inhibition at 1 µM,-4.4%

# From paper PMC6934184, “Selective DNA-PKcs inhibition extends the therapeutic index of localized radiotherapy and chemotherapy” (The Journal of Clinical Investigation, 2019)
